Entries after “also recorded” stand apart in the source; their conditions may differ. Structures can show the parent of a compound that is named as a salt.
Assays:
purple nutsedge = assay: Experiment 1 foliar application to naturally growing weeds; format: in vivo, Cyperus rotundus L.; conditions: 4 months
Description: (§1) The detail of the assessment made in the following Experiments of the invention was as follows:
(§2) Four months after treatment, evaluation was made for inhibition of reproduction expressed in terms of symbols ranging from (-) to (+++) where (-) means no reproduction, namely complete suppression of reproduction, (±) remarkable suppression of reproduction; (+) considerable suppression of reproduction; (++) medium supprestion of reproduction; and (+++) no suppression of reproduction.
(§3) The compounds of the invention and other compounds for comparison listed in Table 3 were diluted to prescribed concentrations and sprayed to naturally growing weeds by foliar application in an amount of 150 liter per 10 are.
(§4) 0.1% of octylphenyl polyoxyethanol was added as a surfactant.
(§5) The killing index (0, no effect, 5, death) after 21 days, and the reproduction-inhibiting effect (-, no reproduction; +++, maximum reproduction) after 2 months (manna grass and cockspar grass) and 4 months (other weeds) were determined.

chigaya = assay: as above; format: in vivo, Imperata cylindrica Beauv.; conditions: 4 months
Description: as §1, §2, §3, §4, §5

kumaichigo = assay: Experiment 2 foliar application in Japanese cypress afforested land; format: in vivo, Rubus crataegifolius Bunge; conditions: 0.125%; after 3 months
Experimental: as §1
(§6) The compounds of the invention and other compounds listed in Table 4. were diluted to prescribed concentrations and sprayed to shrubs by foliar application in a Japanese cypress afforested land in an amount of 150 liter per 10 are.
(§7) After 30 days and 3 months, the killing index (0, no effect; 5, death) was determined.
(§8) The heights of plants were 50-70 cm. for Japanese cypress, about 50 cm. for chestnut, 50-90 cm. for miyakozasa, about 100 cm. for eulalia and 70-100 cm. for kumaichigo, respectively.

manna grass = assay: Experiment 1 foliar application to naturally growing weeds; format: in vivo, Digitaria adsceudes Henr.; conditions: for Reproduction-inhibiting effect: 2 months; for Killing index of Upperground parts: 21 days
Description: as §1, §2, §3, §4, §5

Japanese bush cranberry = assay: Experiment 3 foliar application to naturally growing shrubs; format: in vivo, Viburnum dilatatum Thunb.; conditions: for Reproduction-inhibiting: after 3 months
Description: as §1, §2
(§9) The compounds of the invention and other compounds listed in Table 5. were diluted to prescribed concentrations and sprayed onto naturally growing shrubs by foliar application in an amount of 150 liter per 10 are.
(§10) 0.1% of octylphenyl polyoxyethanol was added as the surfactant. The killing index (0, no effect; 5, death) after 1 month and 3 months, and the reproduction-inhibiting effect (-, no reproduction; +++, maximum reproduction) after 3 months were determined.

warunasubi = assay: Experiment 1 foliar application to naturally growing weeds; format: in vivo, Solanum carolinensis L.; conditions: 4 months
Description: as §1, §2, §3, §4, §5

white clover = assay: as above; format: in vivo, Trifolium repens L.; conditions: 4 months
Description: as §1, §2, §3, §4, §5

torch azalea = assay: Experiment 3 foliar application to naturally growing shrubs; format: in vivo, Rhododendoron Kaempferi Planch.; conditions: after 3 months
Description: as §1, §2, §9, §10

lace shrub = assay: as above; format: in vivo, Stephanandra incisa Zabel; conditions: after 3 months
Description: as §1, §2, §9, §10

weeds and shrubs = conditions: background statement; cited from earlier work
kiichigo = assay: Experiment 3 foliar application to naturally growing shrubs; format: in vivo, Rubus palmatsu Thunb. forma coptophyllus Makino; conditions: after 3 months
Description: as §1, §2, §9, §10

Japanese prickly ash = assay: as above; format: in vivo, Xanthoxylum piperitum DC.; conditions: after 3 months
Description: as §1, §2, §9, §10

yamazakura = assay: as above; format: in vivo, Prunus donarium Sieb. var. spontanae Makino; conditions: after 3 months
Description: as §1, §2, §9, §10

oak = assay: as above; format: in vivo, Quercus serrata Thunb; conditions: after 3 months
Description: as §1, §2, §9, §10

hedge bindweed = assay: Experiment 1 foliar application to naturally growing weeds; format: in vivo, Calystegis hederacea Wall.; conditions: 4 months
Description: as §1, §2, §3, §4, §5

cockspar grass = assay: as above; format: in vivo, Echinochloa Crusgalli P. Beauv.; conditions: for Reproduction-inhibiting effect: 2 months; for Killing index of Upperground parts: 21 days
Description: as §1, §2, §3, §4, §5

yabugarashi = assay: as above; format: in vivo, Cayratia japonica Houtt.; conditions: 4 months
Description: as §1, §2, §3, §4, §5

azumanezasa = assay: as above; format: in vivo, Pleioblastus Chino Makino; conditions: 4 months
Description: as §1, §2, §3, §4, §5

eulalia = assay: Experiment 2 foliar application in Japanese cypress afforested land; format: in vivo, Miscanthus sinensis Andress.; design: key: 0 = no effect, 5 = death
Experimental: as §1, §6, §7, §8

miyakozasa = assay: as above; format: in vivo, Sasa nipponica Makino et Shibata; conditions: 0.25%
Experimental: as §1, §6, §7, §8

## O=C(O)CNCP(=O)(O)O [Glyphosate, N-phosphonomethylglycine]
Purple nutsedge; 0.05%
  Reproduction-inhibiting effect: +++
Purple nutsedge; 0.1%
  Reproduction-inhibiting effect: +++
Purple nutsedge; 0.2%
  Reproduction-inhibiting effect: +
chigaya; 0.05%
  Reproduction-inhibiting effect: +++
chigaya; 0.1%
  Reproduction-inhibiting effect: ++
chigaya; 0.2%
  Reproduction-inhibiting effect: ±
kumaichigo
  Killing index: 0.5
Manna grass; 0.05%
  Reproduction-inhibiting effect: +++
Manna grass; 0.1%
  Reproduction-inhibiting effect: ++
Manna grass; 0.2%
  Reproduction-inhibiting effect: +
Japanese bush cranberry; 0.05%
  Reproduction-inhibiting: +++
Japanese bush cranberry; 0.1%
  Reproduction-inhibiting: +++
Japanese bush cranberry; 0.2%
  Reproduction-inhibiting: ++
Japanese bush cranberry; 0.2%, after 30 days
  Killing index: 1.5
warunasubi; 0.05%
  Reproduction-inhibiting effect: +++
warunasubi; 0.1%
  Reproduction-inhibiting effect: +++
warunasubi; 0.2%
  Reproduction-inhibiting effect: +
White clover; 0.05%
  Reproduction-inhibiting effect: +++
White clover; 0.1%
  Reproduction-inhibiting effect: ++
White clover; 0.2%
  Reproduction-inhibiting effect: +
Torch azalea; 0.05%
  Reproduction-inhibiting: +++
Torch azalea; 0.1%
  Reproduction-inhibiting: +++
Torch azalea; 0.2%
  Reproduction-inhibiting: +++
Lace shrub; 0.05%
  Reproduction-inhibiting: +++
Lace shrub; 0.1%
  Reproduction-inhibiting: +++
Lace shrub; 0.2%
  Reproduction-inhibiting: +++
Weeds and shrubs
  weeding effects of known herbicides in words: not so effective for broad-leaved weeds; also recorded: poor weeding effects for broadleaved weeds and shrubs
kiichigo; 0.05%
  Reproduction-inhibiting: +++
kiichigo; 0.1%
  Reproduction-inhibiting: +++
kiichigo; 0.2%
  Reproduction-inhibiting: ++
Japanese prickly ash; 0.05%
  Reproduction-inhibiting: +++
Japanese prickly ash; 0.1%
  Reproduction-inhibiting: +++
Japanese prickly ash; 0.2%
  Reproduction-inhibiting: +++
yamazakura; 0.05%
  Reproduction-inhibiting: +++
yamazakura; 0.1%
  Reproduction-inhibiting: +++
yamazakura; 0.2%
  Reproduction-inhibiting: ++
oak; 0.05%
  Reproduction-inhibiting: +++
oak; 0.1%
  Reproduction-inhibiting: +++
oak; 0.2%
  Reproduction-inhibiting: +++
Hedge bindweed; 0.05%
  Reproduction-inhibiting effect: +++
Hedge bindweed; 0.1%
  Reproduction-inhibiting effect: +++
Hedge bindweed; 0.2%
  Reproduction-inhibiting effect: +++
Cockspar grass; 0.05%
  Reproduction-inhibiting effect: +++
Cockspar grass; 0.1%
  Reproduction-inhibiting effect: ++
Cockspar grass; 0.2%
  Reproduction-inhibiting effect: +
yabugarashi; 0.05%
  Reproduction-inhibiting effect: +++
yabugarashi; 0.1%
  Reproduction-inhibiting effect: +++
yabugarashi; 0.2%
  Reproduction-inhibiting effect: ++
azumanezasa; 0.05%
  Reproduction-inhibiting effect: +++
azumanezasa; 0.1%
  Reproduction-inhibiting effect: ++
azumanezasa; 0.2%
  Reproduction-inhibiting effect: +

## C[C@H](NC(=O)[C@H](C)NC(=O)[C@@H](N)CCP(C)(=O)O)C(=O)O [(L-2-Amino-4-methylphosphinobutyryl)-L-alanyl-L-alanine mono] [(L-2-Amino-4-methylphosphinobutyryl)-L-alanyl-L-alanine monodiethanolammonium salt]
Purple nutsedge; 0.05%
  Reproduction-inhibiting effect: +++
Purple nutsedge; 0.1%
  Reproduction-inhibiting effect: +++
Purple nutsedge; 0.2%
  Reproduction-inhibiting effect: +
chigaya; 0.05%
  Reproduction-inhibiting effect: +++
chigaya; 0.1%
  Reproduction-inhibiting effect: ++
chigaya; 0.2%
  Reproduction-inhibiting effect: -
Manna grass; 0.05%
  Reproduction-inhibiting effect: +++
Manna grass; 0.1%
  Reproduction-inhibiting effect: ++
  Killing index of Upperground parts: 3.5
Manna grass; 0.2%
  Reproduction-inhibiting effect: -
  Killing index of Upperground parts: 4.5
Japanese bush cranberry; 0.05%
  Reproduction-inhibiting: +++
Japanese bush cranberry; 0.1%
  Reproduction-inhibiting: +
Japanese bush cranberry; 0.2%
  Reproduction-inhibiting: -
warunasubi; 0.05%
  Reproduction-inhibiting effect: +++
warunasubi; 0.1%
  Reproduction-inhibiting effect: +++
warunasubi; 0.2%
  Reproduction-inhibiting effect: +
White clover; 0.05%
  Reproduction-inhibiting effect: +++
White clover; 0.1%
  Reproduction-inhibiting effect: +++
White clover; 0.2%
  Reproduction-inhibiting effect: -
Torch azalea; 0.05%
  Reproduction-inhibiting: +++
Torch azalea; 0.1%
  Reproduction-inhibiting: ++
Torch azalea; 0.2%
  Reproduction-inhibiting: -
Lace shrub; 0.05%
  Reproduction-inhibiting: +++
Lace shrub; 0.1%
  Reproduction-inhibiting: ++
Lace shrub; 0.2%
  Reproduction-inhibiting: -
eulalia; 0.25%, after 3 months
  Killing index: 4.5
eulalia; 0.25%, after 30 days
  Killing index: 4.5
kiichigo; 0.05%
  Reproduction-inhibiting: +++
kiichigo; 0.1%
  Reproduction-inhibiting: +
kiichigo; 0.2%
  Reproduction-inhibiting: -
miyakozasa; after 3 months
  Killing index: 4.5
miyakozasa; after 30 days
  Killing index: 4.5
Japanese prickly ash; 0.05%
  Reproduction-inhibiting: +++
Japanese prickly ash; 0.1%
  Reproduction-inhibiting: +
Japanese prickly ash; 0.2%
  Reproduction-inhibiting: -
yamazakura; 0.05%
  Reproduction-inhibiting: +++
yamazakura; 0.1%
  Reproduction-inhibiting: ++
yamazakura; 0.2%
  Reproduction-inhibiting: -
oak; 0.05%
  Reproduction-inhibiting: +++
oak; 0.1%
  Reproduction-inhibiting: ++
oak; 0.2%
  Reproduction-inhibiting: -
Hedge bindweed; 0.05%
  Reproduction-inhibiting effect: +++
Hedge bindweed; 0.1%
  Reproduction-inhibiting effect: +++
Hedge bindweed; 0.2%
  Reproduction-inhibiting effect: +++
Cockspar grass; 0.05%
  Reproduction-inhibiting effect: +++
Cockspar grass; 0.1%
  Reproduction-inhibiting effect: ++
  Killing index of Upperground parts: 3.5
Cockspar grass; 0.2%
  Reproduction-inhibiting effect: -
  Killing index of Upperground parts: 4.5
yabugarashi; 0.05%
  Reproduction-inhibiting effect: +++
yabugarashi; 0.1%
  Reproduction-inhibiting effect: ++
yabugarashi; 0.2%
  Reproduction-inhibiting effect: ±
azumanezasa; 0.05%
  Reproduction-inhibiting effect: +++
azumanezasa; 0.1%
  Reproduction-inhibiting effect: +
azumanezasa; 0.2%
  Reproduction-inhibiting effect: -

## O=C([O-])C(F)(F)C(F)F.[Na+] [sodium 2,2,3,3-tetrafluoropropionate]
Japanese bush cranberry; 0.1%
  Reproduction-inhibiting: +++
Japanese bush cranberry; 0.2%
  Reproduction-inhibiting: +++
Japanese bush cranberry; 0.4%
  Reproduction-inhibiting: +++
Torch azalea; 0.1%
  Reproduction-inhibiting: +++
Torch azalea; 0.2%
  Reproduction-inhibiting: +++
Torch azalea; 0.4%
  Reproduction-inhibiting: +++
Lace shrub; 0.1%
  Reproduction-inhibiting: +++
Lace shrub; 0.2%
  Reproduction-inhibiting: +++
Lace shrub; 0.4%
  Reproduction-inhibiting: +++
eulalia; 0.5%, after 30 days
  Killing index: 4.5
Weeds and shrubs
  weeding effects of known herbicides in words: effective for eulalia and bamboo grass; also recorded: not so effective for shrubs
kiichigo; 0.1%
  Reproduction-inhibiting: +++
kiichigo; 0.2%
  Reproduction-inhibiting: +++
kiichigo; 0.4%
  Reproduction-inhibiting: +++
Japanese prickly ash; 0.1%
  Reproduction-inhibiting: +++
Japanese prickly ash; 0.2%
  Reproduction-inhibiting: +++
Japanese prickly ash; 0.4%
  Reproduction-inhibiting: +++
yamazakura; 0.1%
  Reproduction-inhibiting: +++
yamazakura; 0.2%
  Reproduction-inhibiting: +++
yamazakura; 0.4%
  Reproduction-inhibiting: +++
oak; 0.1%
  Reproduction-inhibiting: +++
oak; 0.2%
  Reproduction-inhibiting: +++
oak; 0.4%
  Reproduction-inhibiting: +++

Reference: patent US4226610A, “Herbicidal compounds, preparation thereof and herbicides containing the same” (Meiji Selka Kaisha, Ltd., priority 1978, dated 1980)
